In patent publication US9095585B2, “Bioavailable compositions of amorphous piperidinyl compounds” (Bristol-Myers Squibb Company, priority 2011, dated 2015) one finds ionization and aqueous solubility data, which are given here for one compound.

The nature of this data set: Physicochemical properties of Compound I (ionization, aqueous solubility).

As to `CC(C)[C@@H](NC(=O)NCC(C)(C)O)C(=O)N1CC[C@](O)(c2ccc(Cl)cc2)C(C)(C)C1` [Compound I], the ionization entry (pH range of 2-11) was “non-ionizable”. The aqueous solubility result (room temperature) is “low”.
